Source: patent publication US7071197B2, “N,N-disubstituted diazocycloalkanes” (Recordati S.A., priority 2002, dated 2006)

How the values were obtained:
human α1b-adrenoceptor = biological target: T1, human α1b-adrenoceptor (Homo sapiens, UniProt P35368); experiment: [3H]prazosin binding to cloned human α1-adrenoceptor subtypes (α1b); details: for Ki: [3H]prazosin, CHO cell membranes, read-out: Binding affinity (Ki, nM) α1b; for α1b/5-HT1A: selectivity: ratio of Ki at α1b and Ki at 5-HT1A
T1 construct: expressed in transfected cells
T1 sequence (P35368 1-520): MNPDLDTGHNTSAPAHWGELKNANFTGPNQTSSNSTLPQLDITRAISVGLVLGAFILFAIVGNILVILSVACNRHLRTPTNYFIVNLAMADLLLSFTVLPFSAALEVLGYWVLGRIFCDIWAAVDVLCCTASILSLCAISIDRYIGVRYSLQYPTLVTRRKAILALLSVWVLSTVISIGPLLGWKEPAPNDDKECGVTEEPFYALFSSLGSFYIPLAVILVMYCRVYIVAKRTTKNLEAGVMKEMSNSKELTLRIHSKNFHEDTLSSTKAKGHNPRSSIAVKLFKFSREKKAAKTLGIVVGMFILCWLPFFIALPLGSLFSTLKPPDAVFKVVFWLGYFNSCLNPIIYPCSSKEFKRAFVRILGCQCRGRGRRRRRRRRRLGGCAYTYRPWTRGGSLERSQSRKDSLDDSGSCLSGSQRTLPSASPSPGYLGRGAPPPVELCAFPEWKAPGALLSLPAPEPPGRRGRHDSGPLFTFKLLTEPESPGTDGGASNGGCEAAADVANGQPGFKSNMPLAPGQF
Experimental: (§1) Binding to cloned human α1-adrenoceptor subtypes was performed in membranes from CHO cells (chinese hamster ovary cells) transfected by electroporation with DNA expressing the gene encoding each α1-adrenoceptor subtype. Cloning and stable expression of the human α1-adrenoceptor gene was performed as previously described (Testa et al. Pharmacol. Comm., 6: 79–86,1995).
(§2) CHO cells were grown in suspension in Iscove's modified Dulbecco's medium, supplemented with 10% fetal calf serum and gentamicin (50 μg/ml), at 37° C. in 7% CO2 in an humidified incubator. Cells were collected by centrifugation, lised in ice-cold Tris 5 mM and EDTA 5 mM buffer (pH 7.4) and gently homogenised. Homogenates were centrifuged at 40000×g×20 min and pellets were resuspended in a small volume of ice-cold Tris 5 mM and EDTA 5 mM buffer (pH 7.4) and immediately frozen and stored at −80° C. until use.
(§3) CHO cell membranes were resuspended and incubated in 50 mM Tris, pH 7.4, with 0.2 nM [^3H]prazosin, in a final volume of 1.02 ml for 30 min at 25° C., in absence or presence of competing drugs. Non-specific binding was determined in the presence of 10 μM phentolamine. The incubation was stopped by rapid filtration through 0.2% polyethyleneimine pretreated Schleicher & Schuell GF52 filters using a Tomtec (PerkinElmer) cell harvester. The filters were washed with 3×1 ml of ice-cold Tris buffer, dried and the radioactivity was measured in a Betaplate (Wallac) liquid scintillation counter.
(§4) The inhibition of specific binding by the compounds was analysed to estimate the IC50 value by the non-linear curve-fitting program Allfit (De Lean et al. Am. J. Physiol. 235, E97-E102, 1978). The IC50 value is converted to an affinity constant (Ki) by the equation of Cheng & Prusoff (Biochem. Pharmacol. 22: 3099–3108, 1973).

human α1d-adrenoceptor = biological target: T2, human α1d-adrenoceptor (Homo sapiens, UniProt P25100); experiment: [3H]prazosin binding to cloned human α1-adrenoceptor subtypes (α1d); details: for Ki: [3H]prazosin, CHO cell membranes, read-out: Binding affinity (Ki, nM) α1d; for α1d/S-HT1A: selectivity: ratio of Ki at α1d and Ki at 5-HT1A
T2 construct: expressed in transfected cells
T2 sequence (P25100 1-572): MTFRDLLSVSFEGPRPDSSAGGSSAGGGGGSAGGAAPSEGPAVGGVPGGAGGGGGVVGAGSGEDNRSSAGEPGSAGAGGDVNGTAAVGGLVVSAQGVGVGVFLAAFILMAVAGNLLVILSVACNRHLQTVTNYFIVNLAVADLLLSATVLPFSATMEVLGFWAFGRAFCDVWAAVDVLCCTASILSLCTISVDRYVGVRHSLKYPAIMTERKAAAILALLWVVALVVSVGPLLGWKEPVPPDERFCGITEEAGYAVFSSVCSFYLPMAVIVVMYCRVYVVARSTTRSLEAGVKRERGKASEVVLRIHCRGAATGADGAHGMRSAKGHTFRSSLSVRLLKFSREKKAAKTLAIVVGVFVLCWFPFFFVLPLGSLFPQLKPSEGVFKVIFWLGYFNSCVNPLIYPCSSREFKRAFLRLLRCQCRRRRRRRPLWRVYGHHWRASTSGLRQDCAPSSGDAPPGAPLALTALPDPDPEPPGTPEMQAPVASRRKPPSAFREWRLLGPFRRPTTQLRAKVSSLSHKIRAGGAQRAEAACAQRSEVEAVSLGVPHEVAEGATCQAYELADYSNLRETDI
Experimental: as §1, §2, §3, §4

[1] = biological target: T3, rat D3 dopamine receptors (Rattus norvegicus, UniProt P19020); experiment: [3H]-7-OH-DPAT binding to rat recombinant D3 dopamine receptors (SPA); details: for Ki: [3H]-7-OH-DPAT, CHO cell membranes, read-out: Binding affinity for D3 dopamine receptors Ki; for D3/5-HT1A: selectivity: ratio of Ki at D3 and Ki at 5-HT1A
T3 construct: expressed in transfected cells; host or cells: CHO cells (permanent expression)
Experimental: Cloned rat D3 dopamine receptors permanently expressed in CHO cells were used (Chio et al. Mol. Pharmacol. 45, 51–60, 1994). Membranes were prepared by mechanical disruption of cell pellets in ice cold 50 mM Tris, 5 mM EDTA, 5 mM EGTA, pH 7.4 followed by low (100 g), medium (20000 g) and high (80000 g) speed centrifugation steps. Competition radioligand binding experiments employed 11 drug concentrations run in duplicate in a scintillation proximity assay (SPA) format. The radioligand used was [^3H]-7-OH-DPAT (154 Ci/mmol). […] binding (75–95% of total) was defined with cold haloperidol added in excess (3 μM). Total binding was determined with buffer: 20 mM HEPES, 10 mM MgSO4, 150 mM NaCl, 1 mM EDTA (pH 7.4). Binding mixtures were made in flexible, 96-well, Wallac Micro-Beta plates by the addition of 11 μl of drug dilution, 11 μl of radioligand, and 178 μl of membrane/SPA bead suspension (100 mg of WGA-coated SPA beads incubated with 5–15 μg protein/plate in 10 ml binding buffer for 30 minutes at room temperature followed by low-speed centrifugation and resuspension in 2 ml binding buffer). After sealing and incubation at room temperature for 1 hour the plates were counted in a Wallac Micro-Beta scintillation counter.
IC50 values from both assay methods were estimated by fitting the data to a one-site competition model: Y=T/(1+10^log(X)−log(IC50)), where Y is the specific CPM's bound at concentration X and T is the specific CPM's bound in the absence of competitor. Inhibition constants (Ki) were calculated using the Cheng-Prushoff equation (Biochem. Pharmacol. 22: 3099–3108, 1973).

T3 sequence (P19020 whole entry): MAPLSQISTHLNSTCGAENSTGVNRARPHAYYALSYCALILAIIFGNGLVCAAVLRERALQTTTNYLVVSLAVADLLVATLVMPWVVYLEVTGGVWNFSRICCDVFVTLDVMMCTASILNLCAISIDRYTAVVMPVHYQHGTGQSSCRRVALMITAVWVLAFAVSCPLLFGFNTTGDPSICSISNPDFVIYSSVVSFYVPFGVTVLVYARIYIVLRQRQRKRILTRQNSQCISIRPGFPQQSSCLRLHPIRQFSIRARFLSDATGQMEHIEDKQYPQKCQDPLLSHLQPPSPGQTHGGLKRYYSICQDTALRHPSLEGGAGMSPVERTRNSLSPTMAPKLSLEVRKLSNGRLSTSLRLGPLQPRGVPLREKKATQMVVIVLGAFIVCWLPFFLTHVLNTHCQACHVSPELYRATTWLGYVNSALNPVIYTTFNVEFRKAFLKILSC

Row | Compound | Ki (human α1b-adrenoceptor) [nM] | α1b/5-HT1A (human α1b-adrenoceptor) | Ki (human α1d-adrenoceptor) [nM] | α1d/S-HT1A (human α1d-adrenoceptor) | Ki [1] [nM] | D3/5-HT1A [1]
1 | COc1ccccc1N1CCN(CC[C@@H](c2ccccc2F)[C@H](O)C2CCCCC2)CC1 (racemic) [Ex. 1, 1-[(SR-RS)-4-cyclohexyl-4-hydroxy-3-(2-fluorophenyl)-butyl]-4-(2-methoxyphenyl)-piperazine] | 5.9 | 45 | 1 | 7.7 | 12.5 | 96
2 | COc1ccccc1N1CCN(CC[C@H](c2ccccc2)[C@@H](O)C2CCCCC2)CC1 (racemic) [Ex. 5, 1-[(RS,SR)-4-Cyclohexyl-4-hydroxy-3-phenyl-butyl]-4-(2-methoxyphenyl)-piperazine, reference compound] | 12 | 18 | 0.5 | 0.8 | 7 | 11
3 | COc1ccccc1N1CCN(CC[C@H](c2ccccc2F)[C@@H](O)C2CCCCC2)CC1 [Ex. 1Y, 1-[(3R,4S)-4-cyclohexyl-4-hydroxy-3-(2-fluorophenyl)-butyl]-4-(2-methoxyphenyl)-piperazine] | 11 | 30 | 1.2 | 3.2 | 20 | 54
4 | COc1ccccc1N1CCN(CC[C@H](c2ccccc2F)[C@H](O)C2CCCCC2)CC1 [Ex. 2X, 1-[(3R,4R)-4-cyclohexyl-4-hydroxy-3-(2-fluorophenyl)-butyl]-4-(2-methoxyphenyl)-piperazine] | 11 | 46 | 0.5 | 2.1 | 3 | 12
